How the values were obtained:
Format in all cases: cell-based
hNaV1.2 = target: T1, hNaV1.2 (Homo sapiens, UniProt Q99250); assay: Automated whole-cell patch-clamp (QPatch 16X), hNaV1.2; settings: for IC50: HEK293 cells expressing hNaV1.2 + β1 subunit, QPatch 16X, holding −80 mV, step to 0 mV, peptide incubated 2 min, 0.1% BSA, mean, SEM and n (2-7)
T1 construct: host or cells: HEK293
How it was run: (§1)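 HEK293 cells stably expressing the channel (human subtypes with β1 subunit), held at −80 mV; 2 min peptide pre-incubation, then 20 ms steps to 0 mV after a 200 ms −120 mV conditioning pulse. Extracellular pH 7.3 with 20 mM TEA-Cl, CsF-based pipette solution, 0.1% BSA; IC50 from four-parameter Hill fit.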

hNaV1.7 = target: T2, hNaV1.7 (Homo sapiens, UniProt Q15858); assay: Automated whole-cell patch-clamp (QPatch 16X), hNaV1.7; settings: HEK293 cells expressing hNaV1.7 + β1 subunit; QPatch 16X; holding −80 mV, step to 0 mV; peptide incubated 2 min; 0.1% BSA; mean, SEM and n (3-9)
T2 construct: host or cells: HEK293
How it was run: as §1

hNaV1.3 = target: T3, hNaV1.3 (Homo sapiens, UniProt Q9NY46); assay: Automated whole-cell patch-clamp (QPatch 16X), hNaV1.3; settings: HEK293 cells expressing hNaV1.3 + β1 subunit; QPatch 16X; holding −80 mV, step to 0 mV; peptide incubated 2 min; 0.1% BSA; mean, SEM and n (3-12)
T3 construct: host or cells: HEK293
How it was run: as §1

T1 sequence (Q07699 19-218): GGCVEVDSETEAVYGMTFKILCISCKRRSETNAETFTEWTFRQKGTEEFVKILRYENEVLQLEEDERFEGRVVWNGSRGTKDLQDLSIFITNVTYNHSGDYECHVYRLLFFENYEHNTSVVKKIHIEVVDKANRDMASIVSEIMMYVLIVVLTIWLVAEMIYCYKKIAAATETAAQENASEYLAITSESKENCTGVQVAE
T1 sequence (Q99250 whole entry): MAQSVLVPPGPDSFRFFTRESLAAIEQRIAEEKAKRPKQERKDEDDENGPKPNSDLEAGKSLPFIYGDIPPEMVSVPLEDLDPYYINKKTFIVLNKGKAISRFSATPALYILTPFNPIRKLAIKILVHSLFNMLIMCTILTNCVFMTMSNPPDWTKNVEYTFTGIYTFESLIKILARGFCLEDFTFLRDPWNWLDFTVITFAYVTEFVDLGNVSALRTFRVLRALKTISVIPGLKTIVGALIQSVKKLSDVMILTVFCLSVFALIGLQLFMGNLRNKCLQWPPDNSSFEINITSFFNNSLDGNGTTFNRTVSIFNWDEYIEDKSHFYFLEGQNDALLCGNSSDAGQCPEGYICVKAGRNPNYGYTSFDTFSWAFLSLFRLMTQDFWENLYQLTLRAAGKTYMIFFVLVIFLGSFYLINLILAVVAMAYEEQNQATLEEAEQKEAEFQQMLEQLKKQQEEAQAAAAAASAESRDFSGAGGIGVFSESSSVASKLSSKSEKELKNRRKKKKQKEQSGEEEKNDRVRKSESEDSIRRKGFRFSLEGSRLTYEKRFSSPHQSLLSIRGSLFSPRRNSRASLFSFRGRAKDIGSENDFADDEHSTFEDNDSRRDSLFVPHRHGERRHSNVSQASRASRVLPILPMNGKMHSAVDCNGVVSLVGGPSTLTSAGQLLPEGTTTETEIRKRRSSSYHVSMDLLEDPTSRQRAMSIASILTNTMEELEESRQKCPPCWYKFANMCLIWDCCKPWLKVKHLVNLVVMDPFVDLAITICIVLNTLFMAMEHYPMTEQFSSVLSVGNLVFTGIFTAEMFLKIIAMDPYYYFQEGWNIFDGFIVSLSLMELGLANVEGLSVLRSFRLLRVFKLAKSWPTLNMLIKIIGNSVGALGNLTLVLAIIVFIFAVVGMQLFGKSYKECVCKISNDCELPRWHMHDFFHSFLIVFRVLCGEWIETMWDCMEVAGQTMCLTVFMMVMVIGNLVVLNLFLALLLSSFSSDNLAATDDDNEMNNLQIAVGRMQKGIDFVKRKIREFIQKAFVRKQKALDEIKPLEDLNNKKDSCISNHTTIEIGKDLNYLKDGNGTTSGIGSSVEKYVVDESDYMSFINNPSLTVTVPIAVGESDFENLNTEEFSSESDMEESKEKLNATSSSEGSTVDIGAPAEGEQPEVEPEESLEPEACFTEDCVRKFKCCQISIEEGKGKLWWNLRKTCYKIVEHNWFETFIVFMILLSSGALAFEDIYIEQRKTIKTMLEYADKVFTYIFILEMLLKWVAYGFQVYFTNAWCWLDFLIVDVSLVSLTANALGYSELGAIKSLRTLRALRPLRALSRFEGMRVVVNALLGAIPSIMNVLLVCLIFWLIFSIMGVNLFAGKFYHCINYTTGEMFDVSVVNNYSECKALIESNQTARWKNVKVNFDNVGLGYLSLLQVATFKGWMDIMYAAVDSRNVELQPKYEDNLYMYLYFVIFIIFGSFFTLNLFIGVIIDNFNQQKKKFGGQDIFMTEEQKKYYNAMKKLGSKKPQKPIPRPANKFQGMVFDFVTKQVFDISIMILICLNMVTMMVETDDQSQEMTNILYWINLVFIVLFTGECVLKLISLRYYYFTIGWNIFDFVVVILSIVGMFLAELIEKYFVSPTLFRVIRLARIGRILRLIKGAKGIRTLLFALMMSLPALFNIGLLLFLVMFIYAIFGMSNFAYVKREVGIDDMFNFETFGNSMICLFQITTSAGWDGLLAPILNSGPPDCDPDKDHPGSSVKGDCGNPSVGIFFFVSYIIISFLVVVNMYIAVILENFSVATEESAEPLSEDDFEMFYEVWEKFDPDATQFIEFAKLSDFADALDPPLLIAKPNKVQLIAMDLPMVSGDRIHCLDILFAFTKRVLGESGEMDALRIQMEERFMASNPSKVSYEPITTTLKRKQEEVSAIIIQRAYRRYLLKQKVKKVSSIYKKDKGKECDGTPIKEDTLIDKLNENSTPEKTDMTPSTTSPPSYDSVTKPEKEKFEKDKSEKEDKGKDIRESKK
T3 sequence (Q9NY46 whole entry): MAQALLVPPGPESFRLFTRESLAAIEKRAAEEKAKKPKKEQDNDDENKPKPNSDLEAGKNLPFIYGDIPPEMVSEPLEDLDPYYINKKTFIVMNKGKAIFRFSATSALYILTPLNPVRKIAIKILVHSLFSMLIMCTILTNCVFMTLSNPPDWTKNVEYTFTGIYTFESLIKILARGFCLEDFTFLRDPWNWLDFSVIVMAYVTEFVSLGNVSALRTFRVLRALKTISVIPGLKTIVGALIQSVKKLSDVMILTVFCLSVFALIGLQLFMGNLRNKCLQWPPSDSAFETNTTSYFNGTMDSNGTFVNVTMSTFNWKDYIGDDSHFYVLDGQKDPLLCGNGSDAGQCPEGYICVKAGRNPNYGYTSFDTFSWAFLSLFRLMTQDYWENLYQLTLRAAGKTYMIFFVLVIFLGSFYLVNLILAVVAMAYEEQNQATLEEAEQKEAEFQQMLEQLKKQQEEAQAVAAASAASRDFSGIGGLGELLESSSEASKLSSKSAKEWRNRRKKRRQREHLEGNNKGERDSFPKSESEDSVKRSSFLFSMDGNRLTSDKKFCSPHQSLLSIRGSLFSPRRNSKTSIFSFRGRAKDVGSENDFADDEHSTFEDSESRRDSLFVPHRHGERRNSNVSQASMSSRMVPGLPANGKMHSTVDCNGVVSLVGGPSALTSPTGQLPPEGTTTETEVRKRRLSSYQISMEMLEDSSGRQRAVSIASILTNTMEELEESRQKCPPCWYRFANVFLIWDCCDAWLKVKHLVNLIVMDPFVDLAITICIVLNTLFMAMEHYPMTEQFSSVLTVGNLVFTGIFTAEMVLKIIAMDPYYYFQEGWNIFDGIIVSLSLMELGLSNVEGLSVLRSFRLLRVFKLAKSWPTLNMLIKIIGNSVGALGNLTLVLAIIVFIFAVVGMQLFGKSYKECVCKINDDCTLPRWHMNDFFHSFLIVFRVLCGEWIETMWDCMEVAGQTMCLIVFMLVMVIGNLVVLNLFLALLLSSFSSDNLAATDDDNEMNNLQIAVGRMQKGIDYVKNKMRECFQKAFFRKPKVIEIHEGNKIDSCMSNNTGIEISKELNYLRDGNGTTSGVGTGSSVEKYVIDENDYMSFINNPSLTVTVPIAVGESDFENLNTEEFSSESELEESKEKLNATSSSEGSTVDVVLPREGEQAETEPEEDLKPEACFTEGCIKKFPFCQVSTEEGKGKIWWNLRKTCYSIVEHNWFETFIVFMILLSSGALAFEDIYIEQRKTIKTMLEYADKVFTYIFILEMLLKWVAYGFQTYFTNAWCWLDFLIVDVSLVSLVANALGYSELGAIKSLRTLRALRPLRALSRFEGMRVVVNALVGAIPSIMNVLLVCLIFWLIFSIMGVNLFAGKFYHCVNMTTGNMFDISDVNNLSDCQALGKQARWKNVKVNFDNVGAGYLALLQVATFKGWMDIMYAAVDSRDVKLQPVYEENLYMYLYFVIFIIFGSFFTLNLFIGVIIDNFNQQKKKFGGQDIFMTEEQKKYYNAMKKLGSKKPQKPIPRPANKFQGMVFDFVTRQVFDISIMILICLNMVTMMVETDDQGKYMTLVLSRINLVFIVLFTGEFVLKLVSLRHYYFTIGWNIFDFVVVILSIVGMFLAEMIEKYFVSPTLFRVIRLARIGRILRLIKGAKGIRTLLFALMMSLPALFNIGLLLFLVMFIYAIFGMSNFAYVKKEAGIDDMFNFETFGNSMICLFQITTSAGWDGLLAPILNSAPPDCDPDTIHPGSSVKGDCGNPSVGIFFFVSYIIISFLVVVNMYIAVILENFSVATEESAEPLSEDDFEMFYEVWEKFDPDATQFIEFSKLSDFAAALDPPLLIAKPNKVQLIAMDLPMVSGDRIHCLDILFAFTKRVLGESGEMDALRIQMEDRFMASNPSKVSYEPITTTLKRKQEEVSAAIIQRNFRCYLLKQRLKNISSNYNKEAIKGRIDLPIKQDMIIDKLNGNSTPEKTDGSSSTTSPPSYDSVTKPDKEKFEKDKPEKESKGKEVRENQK
T3 sequence (Q07699 19-218, further chain): as the sequence (Q07699 19-218) above

Compound	IC50 (hNaV1.2)	IC50 (hNaV1.7)	IC50 (hNaV1.3)	hNaV1.2-selectivity against hNaV1.3 (hNaV1.2; ratio of potencies hNaV1.3 / hNaV1.2)	hNaV1.2-selectivity against hNaV1.7 (hNaV1.2; ratio of potencies hNaV1.7 / hNaV1.2)
CC(C)C[C@H](NC(=O)[C@H](Cc1ccccc1)NC(=O)[C@H](Cc1ccc(O)cc1)NC(=O)[C@H](CCCNC(=N)N)NC(=O)[C@@H]1CSSC[C@@H]2NC(=O)[C@H](CCCCN)NC(=O)[C@H](CC(N)=O)NC(=O)[C@H](CC(N)=O)NC(=O)[C@H](CC(N)=O)NC(=O)[C@@H]3CCCN3C(=O)[C@H](CC(=O)O)NC(=O)[C@@H]3CSSC[C@H](NC(=O)[C@H](C(C)C)NC(=O)[C@H](Cc4ccc(O)cc4)NC(=O)CNC(=O)[C@H](CCC(=O)O)NC(=O)[C@H](CSSC[C@H](NC(=O)[C@H](CC(=O)O)NC(=O)CN)C(=O)N[C@@H](CC(C)C)C(=O)NCC(=O)N[C@@H](Cc4c[nH]c5ccccc45)C(=O)N[C@@H](Cc4ccccc4)C(=O)N[C@@H](CO)C(=O)NCC(=O)N3)NC2=O)C(=O)N[C@@H](Cc2c[nH]cn2)C(=O)N[C@@H](Cc2c[nH]c3ccccc23)C(=O)N[C@@H](CCCCN)C(=O)N[C@@H](Cc2ccc(O)cc2)C(=O)N2CCC[C@H]2C(=O)N[C@@H](Cc2c[nH]c3ccccc23)C(=O)N1)C(=O)O [D32F]	219 nM	203 nM	162 nM	–	–
CC(C)C[C@H](NC(=O)[C@H](CC(=O)O)NC(=O)[C@H](Cc1ccc(O)cc1)NC(=O)[C@H](CCCNC(=N)N)NC(=O)[C@@H]1CSSC[C@@H]2NC(=O)[C@H](CCCCN)NC(=O)[C@H](CC(N)=O)NC(=O)[C@H](CC(N)=O)NC(=O)[C@H](CC(N)=O)NC(=O)[C@@H]3CCCN3C(=O)[C@H](CC(=O)O)NC(=O)[C@@H]3CSSC[C@H](NC(=O)[C@H](C(C)C)NC(=O)[C@H](Cc4ccc(O)cc4)NC(=O)CNC(=O)[C@H](CCC(=O)O)NC(=O)[C@H](CSSC[C@H](NC(=O)[C@H](CC(=O)O)NC(=O)CN)C(=O)N[C@@H](CC(C)C)C(=O)N[C@@H](CCCNC(=N)N)C(=O)N[C@@H](Cc4c[nH]c5ccccc45)C(=O)N[C@@H](Cc4ccccc4)C(=O)N[C@@H](CO)C(=O)NCC(=O)N3)NC2=O)C(=O)N[C@@H](Cc2c[nH]cn2)C(=O)N[C@@H](Cc2c[nH]c3ccccc23)C(=O)N[C@@H](CCCCN)C(=O)N[C@@H](Cc2ccc(O)cc2)C(=O)N2CCC[C@H]2C(=O)N[C@@H](Cc2c[nH]c3ccccc23)C(=O)N1)C(=O)O [G4R]	193 nM	201 nM	409 nM	–	–
CC(C)C[C@H](NC(=O)[C@H](CC(=O)O)NC(=O)[C@H](Cc1ccc(O)cc1)NC(=O)[C@H](CCCNC(=N)N)NC(=O)[C@@H]1CSSC[C@@H]2NC(=O)[C@H](CCCCN)NC(=O)[C@H](CC(N)=O)NC(=O)[C@H](CC(N)=O)NC(=O)[C@H](CC(N)=O)NC(=O)[C@@H]3CCCN3C(=O)[C@H](CC(=O)O)NC(=O)[C@@H]3CSSC[C@H](NC(=O)[C@H](C(C)C)NC(=O)[C@H](Cc4ccc(O)cc4)NC(=O)CNC(=O)[C@H](CCC(=O)O)NC(=O)[C@H](CSSC[C@H](NC(=O)[C@H](CC(=O)O)NC(=O)CN)C(=O)N[C@@H](C)C(=O)NCC(=O)N[C@@H](Cc4c[nH]c5ccccc45)C(=O)N[C@@H](Cc4ccccc4)C(=O)N[C@@H](CO)C(=O)NCC(=O)N3)NC2=O)C(=O)N[C@@H](Cc2c[nH]cn2)C(=O)N[C@@H](Cc2c[nH]c3ccccc23)C(=O)N[C@@H](CCCCN)C(=O)N[C@@H](Cc2ccc(O)cc2)C(=O)N2CCC[C@H]2C(=O)N[C@@H](Cc2c[nH]c3ccccc23)C(=O)N1)C(=O)O [L3A]	154 nM	170 nM	311 nM	–	–
CC(C)C[C@H](NC(=O)[C@H](CO)NC(=O)[C@H](Cc1ccc(O)cc1)NC(=O)[C@H](CCCNC(=N)N)NC(=O)[C@@H]1CSSC[C@@H]2NC(=O)[C@H](CCCCN)NC(=O)[C@H](CC(N)=O)NC(=O)[C@H](CC(N)=O)NC(=O)[C@H](CC(N)=O)NC(=O)[C@@H]3CCCN3C(=O)[C@H](CC(=O)O)NC(=O)[C@@H]3CSSC[C@H](NC(=O)[C@H](C(C)C)NC(=O)[C@H](Cc4ccc(O)cc4)NC(=O)CNC(=O)[C@H](CCC(=O)O)NC(=O)[C@H](CSSC[C@H](NC(=O)[C@H](CC(=O)O)NC(=O)CN)C(=O)N[C@@H](CC(C)C)C(=O)NCC(=O)N[C@@H](Cc4c[nH]c5ccccc45)C(=O)N[C@@H](Cc4ccccc4)C(=O)N[C@@H](CO)C(=O)NCC(=O)N3)NC2=O)C(=O)N[C@@H](Cc2c[nH]cn2)C(=O)N[C@@H](Cc2c[nH]c3ccccc23)C(=O)N[C@@H](CCCCN)C(=O)N[C@@H](Cc2ccc(O)cc2)C(=O)N2CCC[C@H]2C(=O)N[C@@H](Cc2c[nH]c3ccccc23)C(=O)N1)C(=O)O [D32S]	97 nM	101 nM	137 nM	–	–
CC(C)C[C@H](NC(=O)[C@H](CC(=O)O)NC(=O)[C@H](Cc1ccc(O)cc1)NC(=O)[C@H](CCCNC(=N)N)NC(=O)[C@@H]1CSSC[C@@H]2NC(=O)[C@H](CCCCN)NC(=O)[C@H](CC(N)=O)NC(=O)[C@H](CC(N)=O)NC(=O)[C@H](CC(N)=O)NC(=O)[C@@H]3CCCN3C(=O)[C@H](CC(=O)O)NC(=O)[C@@H]3CSSC[C@H](NC(=O)[C@H](C(C)C)NC(=O)[C@H](Cc4ccc(O)cc4)NC(=O)CNC(=O)[C@H](CCC(=O)O)NC(=O)[C@H](CSSC[C@H](NC(=O)[C@H](CC(=O)O)NC(=O)CN)C(=O)N[C@@H](CC(C)C)C(=O)NCC(=O)N[C@@H](Cc4c[nH]c5ccccc45)C(=O)N[C@@H](Cc4ccccc4)C(=O)N[C@@H](CO)C(=O)N[C@@H](CCCNC(=N)N)C(=O)N3)NC2=O)C(=O)N[C@@H](Cc2c[nH]cn2)C(=O)N[C@@H](Cc2c[nH]c3ccccc23)C(=O)N[C@@H](CCCCN)C(=O)N[C@@H](Cc2ccc(O)cc2)C(=O)N2CCC[C@H]2C(=O)N[C@@H](Cc2c[nH]c3ccccc23)C(=O)N1)C(=O)O [G8R]	117 nM	96 nM	415 nM	–	–
CC(C)C[C@H](NC(=O)[C@H](CC(=O)O)NC(=O)[C@H](Cc1ccc(O)cc1)NC(=O)[C@H](CCCNC(=N)N)NC(=O)[C@@H]1CSSC[C@@H]2NC(=O)[C@H](CCCCN)NC(=O)[C@H](CC(=O)O)NC(=O)[C@H](CC(N)=O)NC(=O)[C@H](CC(N)=O)NC(=O)[C@@H]3CCCN3C(=O)[C@H](CC(=O)O)NC(=O)[C@@H]3CSSC[C@H](NC(=O)[C@H](C(C)C)NC(=O)[C@H](Cc4ccc(O)cc4)NC(=O)CNC(=O)[C@H](CCC(=O)O)NC(=O)[C@H](CSSC[C@H](NC(=O)[C@H](CC(=O)O)NC(=O)CN)C(=O)N[C@@H](CC(C)C)C(=O)NCC(=O)N[C@@H](Cc4c[nH]c5ccccc45)C(=O)N[C@@H](Cc4ccccc4)C(=O)N[C@@H](CO)C(=O)NCC(=O)N3)NC2=O)C(=O)N[C@@H](Cc2c[nH]cn2)C(=O)N[C@@H](Cc2c[nH]c3ccccc23)C(=O)N[C@@H](CCCCN)C(=O)N[C@@H](Cc2ccc(O)cc2)C(=O)N2CCC[C@H]2C(=O)N[C@@H](Cc2c[nH]c3ccccc23)C(=O)N1)C(=O)O [N14D]	126 nM	> 3000 nM	900 nM	7 fold	> 24 fold
CC(C)C[C@H](NC(=O)[C@H](CC(=O)O)NC(=O)[C@H](Cc1ccc(O)cc1)NC(=O)[C@H](CCCNC(=N)N)NC(=O)[C@@H]1CSSC[C@@H]2NC(=O)[C@H](CCCCN)NC(=O)[C@H](CC(N)=O)NC(=O)[C@H](CC(N)=O)NC(=O)[C@H](CC(N)=O)NC(=O)[C@@H]3CCCN3C(=O)[C@H](CC(=O)O)NC(=O)[C@@H]3CSSC[C@H](NC(=O)[C@H](C(C)C)NC(=O)[C@H](Cc4ccc(O)cc4)NC(=O)CNC(=O)[C@H](CCC(=O)O)NC(=O)[C@H](CSSC[C@H](NC(=O)[C@H](CC(=O)O)NC(=O)CN)C(=O)N[C@@H](CC(C)C)C(=O)NCC(=O)N[C@@H](Cc4c[nH]c5ccccc45)C(=O)N[C@@H](Cc4ccccc4)C(=O)N[C@@H](CO)C(=O)NCC(=O)N3)NC2=O)C(=O)N[C@@H](CO)C(=O)N[C@@H](Cc2c[nH]c3ccccc23)C(=O)N[C@@H](CCCCN)C(=O)N[C@@H](Cc2ccc(O)cc2)C(=O)N2CCC[C@H]2C(=O)N[C@@H](Cc2c[nH]c3ccccc23)C(=O)N1)C(=O)O [H23S]	156 nM	198 nM	679 nM	–	–
CC(C)C[C@H](NC(=O)[C@H](CC(=O)O)NC(=O)[C@H](C)NC(=O)[C@H](CCCNC(=N)N)NC(=O)[C@@H]1CSSC[C@@H]2NC(=O)[C@H](CCCCN)NC(=O)[C@H](CC(N)=O)NC(=O)[C@H](CC(N)=O)NC(=O)[C@H](CC(N)=O)NC(=O)[C@@H]3CCCN3C(=O)[C@H](CC(=O)O)NC(=O)[C@@H]3CSSC[C@H](NC(=O)[C@H](C(C)C)NC(=O)[C@H](Cc4ccc(O)cc4)NC(=O)CNC(=O)[C@H](CCC(=O)O)NC(=O)[C@H](CSSC[C@H](NC(=O)[C@H](CC(=O)O)NC(=O)CN)C(=O)N[C@@H](CC(C)C)C(=O)NCC(=O)N[C@@H](Cc4c[nH]c5ccccc45)C(=O)N[C@@H](Cc4ccccc4)C(=O)N[C@@H](CO)C(=O)NCC(=O)N3)NC2=O)C(=O)N[C@@H](Cc2c[nH]cn2)C(=O)N[C@@H](Cc2c[nH]c3ccccc23)C(=O)N[C@@H](CCCCN)C(=O)N[C@@H](Cc2ccc(O)cc2)C(=O)N2CCC[C@H]2C(=O)N[C@@H](Cc2c[nH]c3ccccc23)C(=O)N1)C(=O)O [Y31A]	633 nM	254 nM	> 1000 nM	–	–

— paper PMC10682951, “Structure-function and rational design of a spider toxin Ssp1a at human voltage-gated sodium channel subtypes” (Frontiers in Pharmacology, 2023)
